Source: article PMC9939320 (Acta Pharmaceutica Sinica. B, 2022)

Assay: cytotoxicity
Assay type: cell-based

Structure (SMILES)	CC50 [µM]
CC1=CC[C@@H]2[C@]34CC[C@](O)(OC3)C(C)(C)[C@@H]4CC[C@@]2(C)[C@@]12Oc1cc(-c3cccnc3)oc(=O)c1[C@@H]2O [Compound 8, decaturin B]	> 100
NC(=O)c1ncn([C@@H]2O[C@H](CO)[C@@H](O)[C@H]2O)n1 [Ribavirin]	> 100
